Consider 7 compounds from patent US5071850A, “2,3-dihydro-3-arylalkylaminoalkyl-4H-1,3-benzoxazin-4-one derivatives, their preparation and their application as medicinal products which are useful in therapy” (Pierre Fabre Medicament, priority 1988, dated 1991).

In general, LD50 refers to the dose at which mortality reaches 50%. A low value points to greater toxicity. As a reminder, the inhibition is the percentage by which the read-out fell short of the control. High values mean a response far below the control, low ones a response near the control. Broadly, the solubility is the concentration that dissolves in the medium under given conditions. Read a low solubility as little dissolved substance.

Structures can show the parent of a compound that is named as a salt.

The conditions of data set [1]: Finkelstein and Chiang, J. Med. Chem. 11, 1038 (1968); cited from earlier work.
Data set [2] in a line: Acute intravenous toxicity in mice (LD50, Miller and Tainter). As to conditions: mouse, in vivo, mice weighing 20 to 22 g. How it is done: The chemical compounds described above were subjected to toxicity controls. This study was carried out on conventional mice weighing 20 to 22 g. The watersoluble salts of the compounds of general formula I were administered intravenously. The 50% lethal dose (LD50) is calculated according to the method of Miller and Tainter (Proc. Soc. Exp. Biol. Med. 1944, 57, 261).

Data set [3] relates to conscious dogs. The experiment in a line: Bradycardic effect in conscious dogs with hydralazine-raised heart rate (Kobinger and Lillie). In kind it is in vivo. To be noted: for Heart rate after / Heart rate before / Heart rate Change: 1 mg/kg iv; for Heart rate after: after test product; for Heart rate after / Heart rate Change: hydralazine tachycardia; for Heart rate before: before test product, after hydralazine 1 mg/kg iv. The procedure:
When the latter has stabilized, the test products are injected intravenously.

In data set [4] the test system is Left atrium. Put plainly: Inotropic effect on isolated electrically stimulated left atrium. To be noted: Cavia porcellus, electrically stimulated at fixed rhythm, percentage change; for inhibition at 0.3 µg/mL: 0.3 ug/ml; for inhibition at 1 µg/mL: 1 ug/ml. More on the design: species or system guineapig. How it is done:
(§1) c) Finally, the chronotropic and inotropic activities were measured on isolated guineapig atria placed in isolated organ cells. The organs are then connected to force gauges. The right atrium, beating in a spontaneous rhythm, enables the negative chronotropic effects of the products to be assessed. As regards the left atria, these are electrically stimulated at a fixed rhythm so as to evaluate actions on the inotropic effect. The percentage changes are recorded in Table V for the compounds A, B, G and J, by way of non-limiting examples.

Data set [5] deals with anesthetized rats. Put plainly: Coronary ligation in anesthetized rats (antiarrhythmic activity and heart rate). It is filed as in vivo. As to conditions: for % fall in heart rate after 1 min: 1 min after injection; for % fall in heart rate after 1 min / % fall in heart rate after 10 min: % change relative to controls; for % fall in heart rate after 10 min: 10 min after injection; for % fall in arrhythmias: coronary ligation. The text has this:
a) The technique of coronary ligation in anesthetized rats according to Clark et al. (J. Pharm. […] SC denotes the percentage reduction in disorders of rhythm induced by these compounds, n denotes the number of animals.

A short description of data set [6]: Solubility in water. It is filed as physicochemical.
The test system of data set [7] is Right atrium. Put plainly: Chronotropic effect on isolated spontaneously beating right atrium. Further details: species or system guineapig. To be noted: Cavia porcellus, spontaneous rhythm, percentage change; for inhibition at 0.3 µg/mL: 0.3 ug/ml; for inhibition at 1 µg/mL: 1 ug/ml. How it is done:
as §1

Data set [8] deals with rats anesthetized with pentobarbital sodium. Put plainly: Bradycardic effect and intracardiac conduction times (ECG, arterial pressure) in pentobarbital-anesthetized rats. In kind it is in vivo. To be noted: for % ABP (mean arterial blood pressure) / % HR (heart rate): % change at peak of action; for % modification of the ECG intervals: PQ (atrioventricular conduction time) / % modification of the ECG intervals: QRS (intraventricular conduction time) / % modification of the ECG intervals: QTS / % modification of the ECG intervals: TP (electrocardiac diastole): at peak of action. The procedure: b) The bradycardic effect and the analysis of the intracardiac conduction times were studied on rats anesthetized with pentobarbital sodium (40 mg/kg ip) and left in spontaneous ventilation. The electrocardiogram is recorded simultaneously in the standard leads OI, OII and OIII; the arterial blood pressure is measured on a femoral artery. The percentage changes are considered at the peak of action. The results relating to the compounds A, B, J, G and N are given in Table III, by way of non-limiting example.

As to `CCN(CC)CCN1COc2ccccc2C1=O` [3-(2-diethylaminoethyl)-2,3-dihydro-4H-1,3-benzoxazin-4-one], the pharmacological result in data set [1] is “inactive”.
`COc1ccc(CCN(C)CCCN2COc3ccccc3C2=O)cc1OC.Cl` [Compound A, 2,3-Dihydro-3-{3-[(methyl)(3,4-dimethoxyphenethyl)amino]propyl}-4H-1,3-benzoxazin-4-one hydrochloride]: in data set [2], the 50% lethal dose (LD50) was determined as 27 mg/kg. Also, in data set [3], the Heart rate after came to 140 bts/min, the Heart rate before turned out to be 215 bts/min and the “Heart rate Change” value is -35%. In data set [4], this compound displayed an inhibition at 0.3 µg/mL of 16% and an inhibition at 1 µg/mL of 15%. In addition, in data set [5] (2.5 mg/kg iv), the “% fall in heart rate after 1 min” value is given as -30%, the “% fall in heart rate after 10 min” value was -11% and the “% fall in arrhythmias” value was -9%. In data set [5] (10 mg/kg iv), the “% fall in heart rate after 1 min” value is -50%, the “% fall in heart rate after 10 min” value was -19% and the “% fall in arrhythmias” value is recorded as -76%. In data set [6], this compound yielded a solubility of 100 mg/mL. Besides, in data set [7], the inhibition at 0.3 µg/mL turned out to be 15% and 1 µg/mL produced 19% inhibition. In data set [8] (3 mg/kg iv), the “% ABP (mean arterial blood pressure)” value was -33%, the “% HR (heart rate)” value is reported as -31%, the “% modification of the ECG intervals: PQ (atrioventricular conduction time)” value (shortened to “% modification of the ECG intervals: PQ”) is recorded as “+26%” and the “% modification of the ECG intervals: QRS (intraventricular conduction time)” value (shortened to “% modification of the ECG intervals: QRS”) is listed as “+11%”. For the same compound, in data set [8] (3 mg/kg iv), the “% modification of the ECG intervals: QTS” value is recorded as “+29%” and the “% modification of the ECG intervals: TP (electrocardiac diastole)” value (“% modification of the ECG intervals: TP” below) was “+76%”.
`COc1ccc(CCN(C)CCCN2COc3cc(OC)c(OC)cc3C2=O)cc1OC.Cl` [Compound B, 2,3-Dihydro-6,7-dimethoxy-3-{3-[(methyl)(3,4-dimethoxyphenethyl)amino]propyl}-4H-1,3-benzoxazin-4-one hydrochloride]: the median lethal dose (LD50) in data set [2] stood at 48 mg/kg. Besides, in data set [3], the Heart rate after is given as 105 bts/min, the Heart rate before is recorded as 175 bts/min and the “Heart rate Change” value is listed as -40%. In data set [4], the inhibition at 0.3 µg/mL stood at 9% and testing at 1 µg/mL gave an inhibition of 6.5%. Further, in data set [5] (2.5 mg/kg iv), the “% fall in heart rate after 1 min” value is recorded as -50%, the “% fall in heart rate after 10 min” value is -28% and the “% fall in arrhythmias” value is listed as -38%. Further, in data set [5] (10 mg/kg iv), the “% fall in heart rate after 1 min” value is -66%, the “% fall in heart rate after 10 min” value is -60% and the “% fall in arrhythmias” value is reported as -80%. The solubility in data set [6] is > 100 mg/mL. Besides, in data set [7], the inhibition at 0.3 µg/mL was determined as 27% and the inhibition at 1 µg/mL was determined as 64%. Besides, in data set [8] (1 mg/kg iv), the “% ABP (mean arterial blood pressure)” value was -16%, the “% HR (heart rate)” value is -32%, the “% modification of the ECG intervals: PQ” value is recorded as “+9%” and the “% modification of the ECG intervals: QRS” value is “+12%”. Besides, in data set [8] (1 mg/kg iv), the “% modification of the ECG intervals: QTS” value is reported as “+38%” and the “% modification of the ECG intervals: TP” value is “+95%”. In data set [8] (3 mg/kg iv), the “% ABP (mean arterial blood pressure)” value is -34%, the “% HR (heart rate)” value is reported as -55%, the “% modification of the ECG intervals: PQ” value is given as “+17%” and the “% modification of the ECG intervals: QRS” value was “+24%”. Further, in data set [8] (3 mg/kg iv), the “% modification of the ECG intervals: QTS” value is on record as “+75%” and the “% modification of the ECG intervals: TP” value is reported as “+211%”.
The compound `COc1ccc(CCN(C)CCCN2COc3cc(C)ccc3C2=O)cc1OC.Cl` [Compound G, 2,3-Dihydro-3-{3-[(methyl)(3,4-dimethoxyphenethyl)amino]propyl}-7-methyl-4H-1,3-benzoxazin-4-one hydrochloride] showed an inhibition at 1 µg/mL in data set [4] of 4%. Further, in data set [5] (2.5 mg/kg iv), the “% fall in heart rate after 1 min” value is listed as -39%, the “% fall in heart rate after 10 min” value is on record as -16% and the “% fall in arrhythmias” value is reported as -1%. The compound also yielded a solubility in data set [6] of 90 mg/mL. Further, in data set [7], at 1 µg/mL the inhibition was 35%. In addition, in data set [8] (1 mg/kg iv), the “% ABP (mean arterial blood pressure)” value is -10%, the “% HR (heart rate)” value is listed as -18%, the “% modification of the ECG intervals: PQ” value is reported as “+10%” and the “% modification of the ECG intervals: QRS” value was “+5%”. Further, in data set [8] (1 mg/kg iv), the “% modification of the ECG intervals: QTS” value is reported as “+12%” and the “% modification of the ECG intervals: TP” value is “+32%”.
For the compound `COc1ccc(CCN(C)CCCN2COc3cc(Cl)ccc3C2=O)cc1OC.Cl` [Compound J, 7-Chloro-2,3-dihydro-3-{3-[(methyl)(3,4-dimethoxyphenethyl)amino]propyl}-4H-1,3-benzoxazin-4-one hydrochloride], 1 µg/mL produced 11% inhibition in data set [4]. In addition, in data set [5] (2.5 mg/kg iv), the “% fall in heart rate after 1 min” value is listed as -32%, the “% fall in heart rate after 10 min” value was -12% and the “% fall in arrhythmias” value is on record as -37%. This compound displayed a solubility in data set [6] of 120 mg/mL. In data set [7], this compound returned an inhibition at 1 µg/mL of 29%. Further, in data set [8] (1 mg/kg iv), the “% ABP (mean arterial blood pressure)” value was -13%, the “% HR (heart rate)” value is -16%, the “% modification of the ECG intervals: PQ” value is listed as “+9%” and the “% modification of the ECG intervals: QRS” value is listed as “+12%”. Further, in data set [8] (1 mg/kg iv), the “% modification of the ECG intervals: QTS” value is reported as “+12%” and the “% modification of the ECG intervals: TP” value is on record as “+29%”.
In the case of `CCCCCCCC1Oc2cc(OC)c(OC)cc2C(=O)N1CCCN(C)CCc1ccc(OC)c(OC)c1` (stereo not drawn) [Compound N, hydrochloride], in data set [5] (2.5 mg/kg iv), the “% fall in heart rate after 1 min” value was -4%, the “% fall in heart rate after 10 min” value is -6% and the “% fall in arrhythmias” value is reported as -72%. This compound had a solubility in data set [6] of 100 mg/mL. Besides, in data set [8] (1 mg/kg iv), the “% ABP (mean arterial blood pressure)” value is given as -9%, the “% HR (heart rate)” value is recorded as -12%, the “% modification of the ECG intervals: PQ” value is listed as “+7%” and the “% modification of the ECG intervals: QRS” value was “+12%”. Besides, in data set [8] (1 mg/kg iv), the “% modification of the ECG intervals: QTS” value is listed as “+10%” and the “% modification of the ECG intervals: TP” value is listed as “+21%”.
Turning to `NNc1nncc2ccccc12` [hydralazine, reference compound], in data set [3] (hydralazine 1 mg/kg iv, conscious dogs), the “heart rate effect of hydralazine” value was “causes tachycardia”.
